The results in this text go back to US7595395B2, “Gabaergic agents to treat memory deficits” (priority 2005, dated 2009).

One experiment addresses α1β3γ2 GABAA receptor (Rattus norvegicus, UniProt P18508+P62813). Description: Two-electrode voltage clamp in Xenopus oocytes, α1β3γ2. To be noted: oocytes. In general terms: In two-electrode clamp one electrode senses voltage and the other passes current.
The next experiment relates to C57B1/6 mice. Description: Pavlovian fear conditioning, contextual memory, scopolamine impairment. The format is in vivo. To be noted: for fear conditioned contextual memory, impairment by scopolamine (in words): 10 mg/kg compound, 1 mg/kg scopolamine, mouse; for reversal of scopolamine induced memory deficits (in words): mice, dose not stated. As to the method: Because the hippocampus is involved in the regulation of events underlying learning and memory, α5 subtype selective agents were evaluated for their ability to modulate hippocampal-dependent and hippocampal-independent forms of memory using Pavlovian fear conditioning paradigms with mice or rats. The protocols for these studies were reported in references Bailey, D. J., Tetzlaff, J. E., Cook, J. M., He, X. H. and Helmstetter, F. J., “Effects of Hippocampal Injections of A Novel Ligand Selective for the Alpha 5 Beta 2 Gamma 2 Subunits of the GABA/Benzodiazepine Receptor on Pavlovian Conditioning,” Neurobiol. Learn. Mem., 78, 1-10 (2002); Delorey, T. M., Lin, R. C., Mcbrady, B., He, X. H., Cook, J. M., Lameh, J. and Loew, G. H., “Influence of Benzodiazepine Binding Site Ligands on Fear-Conditioned Contextual Memory,” Eur. J. Pharmacol., 426, 45-54 (2001).
Further, animal data for FIGS. 22-26 were obtained using experimental methodologies described in a previously published reference, Influence of benzodiazepine binding site ligands on fear-conditioned contextual memory European journal of Pharmacology, Volume 426, Issues 1-2, 24 Aug. 2001, Pages 45-54, Timothy M. DeLorey, Richard C. Lin, Brian McBrady, Xiaohui He, James M. Cook, Jelveh Lameh and Gilda H. Loew, which is incorporated by reference as if fully set forth here in its entirety. Selected sections of the reference are provided below:
Male C57B1/6 mice were obtained from Charles Rivers Laboratories (Holister, Calif.) at 6 weeks of age. Mice used in fear conditioning were between 7 and 12 weeks of age. Animals were housed eight to a cage in rooms with a normal 12-h light/12-h dark cycle (lights on 700-1900 h) with free access to food and water. Tests were conducted during the light phase between 1300 and 1700 h with a 20-min acclimation period in the testing room prior to drug or vehicle administration. All animal protocols used in this study conform to the guidelines determined by the National Institute of Health (USA) Office for Protection from Research Risks and are approved by the Animal Care and Use Committee of the Palo Alto Veterans Administration Medical Center, Palo, Alto, Calif. (USA).
Before testing each day, the mice were moved to a holding room and allowed to acclimate for at least 30 min. Each mouse received an i.p. injection of one of the following: vehicle, benzodiazepine binding site ligand (2-30 mg/kg), scopolamine (1 mg/kg), methylscopolamine (1 mg/kg) or scopolamine (1 mg/kg) combined with one of the benzodiazepine binding site ligands (2-30 mg/kg). The dose level chosen for each compound was one that neither elicited convulsions nor impaired locomotion. Twenty minutes after injection, the mice were placed individually in one of four identical experimental chambers (Med Associates, St. Albans, Vt.) that had been scented with 0.3% ammonium hydroxide solution before testing. Chambers were back-lit with fluorescent light with a white noise generator providing 70 dB of background noise. […] Twenty-four hours later, contextual memory was assessed by placing the mice back into the freshly rescented (0.3% Ammonium hydroxide) conditioning chambers in which they were trained, for a 4-min test period in the absence of footshock. Conditioned fear to the context was assessed by measuring the freezing response according to the methods of Fanselow and Bolles (1979). […] An observer, blind to the drug(s) used, scored each mouse every 8 s, for a total of 4 min, for presence or absence of freezing. […]

Chain of α1β3γ2 GABAA receptor (P62813 28-455): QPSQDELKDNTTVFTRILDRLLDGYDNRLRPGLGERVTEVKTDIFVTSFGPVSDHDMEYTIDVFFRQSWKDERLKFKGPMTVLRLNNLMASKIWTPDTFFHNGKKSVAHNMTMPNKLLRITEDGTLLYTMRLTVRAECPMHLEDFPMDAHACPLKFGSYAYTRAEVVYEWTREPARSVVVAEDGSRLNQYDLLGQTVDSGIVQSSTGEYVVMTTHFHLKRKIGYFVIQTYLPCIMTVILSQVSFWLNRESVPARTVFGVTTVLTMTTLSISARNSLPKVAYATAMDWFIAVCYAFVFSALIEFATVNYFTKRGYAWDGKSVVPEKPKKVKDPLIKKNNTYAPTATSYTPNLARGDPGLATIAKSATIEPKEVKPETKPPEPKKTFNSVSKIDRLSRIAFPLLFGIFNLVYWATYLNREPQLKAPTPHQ
Chain of α1β3γ2 GABAA receptor (P63079 26-473 partner): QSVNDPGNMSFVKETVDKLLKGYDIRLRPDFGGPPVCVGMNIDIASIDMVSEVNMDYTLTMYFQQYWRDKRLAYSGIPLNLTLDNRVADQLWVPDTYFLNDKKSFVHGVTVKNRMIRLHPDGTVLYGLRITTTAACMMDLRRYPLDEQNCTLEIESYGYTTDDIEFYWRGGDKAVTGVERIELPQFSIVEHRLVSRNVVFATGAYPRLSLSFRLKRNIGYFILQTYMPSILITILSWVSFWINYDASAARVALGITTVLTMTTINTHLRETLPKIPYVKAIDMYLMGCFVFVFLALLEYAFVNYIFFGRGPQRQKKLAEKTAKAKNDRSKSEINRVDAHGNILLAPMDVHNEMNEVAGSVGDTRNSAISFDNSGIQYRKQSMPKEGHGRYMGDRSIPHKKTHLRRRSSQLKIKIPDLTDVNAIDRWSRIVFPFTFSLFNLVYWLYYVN
Chain of α1β3γ2 GABAA receptor (P18508 39-466): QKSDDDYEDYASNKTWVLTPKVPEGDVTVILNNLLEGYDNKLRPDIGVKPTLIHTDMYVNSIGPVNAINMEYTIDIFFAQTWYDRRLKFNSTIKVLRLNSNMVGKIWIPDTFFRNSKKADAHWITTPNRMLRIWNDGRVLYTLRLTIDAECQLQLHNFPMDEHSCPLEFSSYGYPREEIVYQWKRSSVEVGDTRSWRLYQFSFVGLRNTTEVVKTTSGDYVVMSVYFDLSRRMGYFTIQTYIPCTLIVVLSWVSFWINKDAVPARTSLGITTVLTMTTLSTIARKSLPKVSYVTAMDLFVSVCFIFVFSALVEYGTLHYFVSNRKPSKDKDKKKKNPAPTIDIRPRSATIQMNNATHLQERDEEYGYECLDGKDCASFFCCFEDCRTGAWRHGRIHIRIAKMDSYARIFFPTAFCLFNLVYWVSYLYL

For `CCOC(=O)c1ncn2c1CN=C(c1ccccc1)c1cc(-c3ccccc3)ccc1-2` [DM-I-81, Ethyl 8-phenyl-6-phenyl-4H-benzo[f]imidazo[1,5-a][1,4]diazepine-3-carboxylate], on α1β3γ2 GABAA receptor, the “efficacy / modulation of GABA elicited currents at α1 (in words)” value is reported as “very poor efficacy”.

Turning to `COCc1ncn2c1CN(C)C(=O)c1cc(Cl)ccc1-2` [PWZ-029, methyl(8-chloro-5,6-dihydro-5-methyl-6-oxo-4H-imidazo[1,5-α][1,4]benzodiazepin-3-yl)methyl ether], in the experiment on C57B1/6 mice, the “fear conditioned contextual memory, impairment by scopolamine (in words)” value is “attenuation of contextual memory impairment” and the “reversal of scopolamine induced memory deficits (in words)” value is listed as “reverse scopolamine induced memory deficits”.

Regarding `CCc1ccc2c(c1)C(=O)N(C)Cc1c(C(=O)OCCCOC(=O)c3ncn4c3CN(C)C(=O)c3cc(CC)ccc3-4)ncn1-2` [XLi356, 1,3-Bis(8-ethyl-5,6-dihydro-5-methyl-6-oxo-4H-imidazo[1,5a][1,4]benzodiazepine-3-carboxy)propyl diester], the “fear conditioned contextual memory, impairment by scopolamine (in words)” value in the experiment on C57B1/6 mice is listed as “attenuates the impairment of memory”. Moreover, the “reversal of scopolamine induced memory deficits (in words)” value with C57B1/6 mice (listed as XLi 356) is “potently reverse scoploamine induced memory deficiencies”; with C57B1/6 mice (listed as Xli356) it was “reverse scopolamine induced memory deficits”. Further, the “efficacy / modulation of GABA elicited currents at α1 (in words)” value on α1β3γ2 GABAA receptor is recorded as “no activity”.
